This note sets out measurements from patent publication US20180000942A1, “COMPOSITIONS FOR DRUG ADMINISTRATION” (priority 2013, published 2018).

Structures are written as SMILES.

For data set [1] the following is noted: New Zealand White, rabbit, in vivo.
Protocol: Thereafter, the animals return to consciousness. At individual time point over a two hour period, 1 mL blood samples are collected from the central ear artery. […] All samples are stored at −70° C. until assaying for melatonin. Melatonin is measured using a commercial ELISA kit manufactured by GenWay Biotech Inc., San Diego, Calif.
A short description of data set [2]: Bioavailability of antisense oligonucleotide given intrajejunally. Type of data set: in vivo, Cynomolgus monkeys. As to conditions: AUC over 240 minutes relative to reference. The procedure: An approximately 7,000 Dalton antisense oligonucleotide (ASO) with a modified backbone (phosphorothioate oligonucleotide as described in U.S. Pat. No. 7,132,530) mixed with alkylglycoside tetradecyl-beta-D-maltoside (Intravail™), was administered to six Cynomolgus monkeys canulated into the jejunum at a dose of 10 mg/kg. The animals were fasted prior to administration. Test agents were dissolved in PBS buffer and injected through the cannula into the jejunum of each animal in a 1.5 mL volume or administered subcutaneously (s.c.) as noted in Table VIII.
The protocol involved a 3 way crossover in which each animal had the first 3 test agents in Table VIII administered on 3 different dates. There was a 1 week washout period between dosing dates. […] Analysis of the blood levels was conducted using quantitative analysis involving solid phase extraction using cationic polystyrene nanoparticles. […]
Quantitative analysis was performed with capillary gel electrophoresis of the extracted samples. […] Using the data obtained from CGE analysis, quantitation of phosphorothioate oligonucleotides was carried out. The amount of oligonucleotides in the samples (nON) was calculated using the following formula: […]
The relative bioavailabilities were determined as the ratio of each AUC divided by the AUC for the intravenously administered drug. […]

In data set [3] the test system is blood glucose. Put plainly: Insulin eye drops with absorption enhancer in xylazine/ketamine anesthetized rats, blood glucose.
The test system of data set [4] is blood glucose. Put plainly: Insulin eye drops with […] and nose drops with 0.5% tetradecyl maltoside, blood glucose. Type of data set: in vivo, rat. Conditions: insulin nose drops with 0.5% tetradecyl maltoside added after 120 min.
Another data set has as its system human nasal epithelium. Put plainly: Irritation of nasal mucosa on daily intranasal administration. As to conditions: […] in OTC nasal saline, 33 days.
Another data set can be described thus: in vivo. Conditions: other: buccal, 60 mg.

In the case of `COc1ccc2[nH]cc(CCNC(C)=O)c2c1` [melatonin, 5-methoxy-N-acetyltryptamine], in data set [1], the “time to maximal concentration versus tablets without alkyl saccharides” value is “approximately one half the time”.

In the case of `CCCCCCCCCCCCCCO[C@@H]1O[C@H](CO)[C@@H](O[C@H]2O[C@H](CO)[C@@H](O)[C@H](O)[C@H]2O)[C@H](O)[C@H]1O` [Tetradecyl Maltoside, n-tetradecyl-4-O-α-D-glucopyranosyl-β-D-glucopyranoside], in data set [2], the “Average Bioavailability (n = 6)” value is reported as “up to 18%”. Also, the “effect as absorption enhancer for ocular insulin (blood glucose lowering), in words” value in the data set on blood glucose [3] (0.5% enhancer) and with blood glucose [3] ([…] enhancer) was “effective” in each case. Moreover, the “Blood Glucose” value is 74 mg/dL in the data set with blood glucose [4] (time 150 min), 76 mg/dL in the data set on blood glucose [4] (time 165 min) and 68 mg/dL in the data set with blood glucose [4] (time 180 min). Also, the “irritation of the nasal mucosa” value with human nasal epithelium is “no observable irritation”.

`O=C(c1ccc(OCCN2CCCCC2)cc1)c1c(-c2ccc(O)cc2)sc2cc(O)ccc12` [raloxifene, Raloxifene] came in with a bioavailability in “in vivo” of at least 4%.

For orientation: bioavailability means dose-corrected exposure relative to a reference, in per cent. Low readings indicate little systemic uptake, high ones much systemic uptake.
